Experimental data as given in patent US4272437A, “Antibacterial agents, and 4-thio azetidinone intermediates” (priority 1979, dated 1981).
Values after ≈ are worked out from the molar mass of the structure shown. Counter-ions that a name gives are not always drawn. Like-named read-outs stand apart in the source and are kept apart here.

Columns and labels:
Str. pneumoniae A-9585 = assay: MIC, tube dilution, Streptococcus pneumoniae A9585; format: cell-based; conditions: Streptococcus pneumoniae, A9585, Str. pneumoniae A9585; overnight 37° C., Nutrient Broth; read-out: Minimum Inhibitory Concentration (M.I.C.)
Excerpt: (§1) Representative compounds of the present invention were subjected to in vitro antibiotic screening against a variety of microorganisms.

Str. pyogenes A-9604 = assay: MIC, tube dilution, Streptococcus pyogenes A9604; format: cell-based; conditions: Streptococcus pyogenes, A9604, Str. pyogenes A9604; overnight 37° C., Nutrient Broth; read-out: Minimum Inhibitory Concentration (M.I.C.)
Excerpt: as §1

Staph. aureus A-9537 = assay: MIC, tube dilution, Staphylococcus aureus A9537; format: cell-based; conditions: Staphylococcus aureus, A9537, Staph. aureus A9537; overnight 37° C., Nutrient Broth; read-out: Minimum Inhibitory Concentration (M.I.C.)
Excerpt: as §1

[1] = tested on: Staph. aureus A-9537 and 50% serum; assay: MIC, tube dilution, Staph. aureus A9537 + 50% serum; format: cell-based, Staphylococcus aureus; conditions: Staphylococcus aureus, overnight 37° C., read-out: Minimum Inhibitory Concentration (M.I.C.)
Excerpt: as §1

[2] = tested on: Staph. aureus (Pen-Res) A-9606; assay: MIC, tube dilution, Staphylococcus aureus A9606 (Pen-Res); format: cell-based; conditions: Staphylococcus aureus, Staph. aureus A9606 (Pen-Res); overnight 37° C.; read-out: Minimum Inhibitory Concentration (M.I.C.)
Excerpt: as §1

[3] = tested on: Staph. aureus (Meth-Res) A-15097; assay: MIC, tube dilution, Staphylococcus aureus A15097 (Meth-Res); format: cell-based; conditions: Staphylococcus aureus, Staph. aureus A15097 (Meth-Res); overnight 37° C.; read-out: Minimum Inhibitory Concentration (M.I.C.)
Excerpt: as §1

Str. faecalis A-20688 = assay: MIC, tube dilution, Streptococcus faecalis A20688; format: cell-based; conditions: Enterococcus faecalis, A20688, Str. faecalis A20688; overnight 37° C.; read-out: Minimum Inhibitory Concentration (M.I.C.)
Excerpt: as §1

E. coli A-15119 = assay: MIC, tube dilution, Escherichia coli A15119; format: cell-based; conditions: Escherichia coli, A15119, E. coli A15119; overnight 37° C.; read-out: Minimum Inhibitory Concentration (M.I.C.)
Excerpt: as §1

E. coli A-20341-1 = assay: MIC, tube dilution, Escherichia coli A20341-1; format: cell-based
Excerpt: as §1

K. pneumoniae A-15130 = assay: MIC, tube dilution, Klebsiella pneumoniae A15130; format: cell-based; conditions: Klebsiella pneumoniae, A15130, K. pneumoniae A15130; overnight 37° C.; read-out: Minimum Inhibitory Concentration (M.I.C.)
Excerpt: as §1

[4] = tested on: Klebsiella species A20468; assay: MIC, tube dilution, Klebsiella species A20468; format: cell-based; conditions: Klebsiella species (K. pneumoniae) A20468; overnight 37° C.; read-out: Minimum Inhibitory Concentration (M.I.C.)
Excerpt: as §1

Pr. mirabilis A-9900 = assay: MIC, tube dilution, Proteus mirabilis A9900; format: cell-based; conditions: Proteus mirabilis, A9900, Proteus mirabilis A9900; overnight 37° C.; read-out: Minimum Inhibitory Concentration (M.I.C.)
Excerpt: as §1

Pr. morganii A-15153 = assay: MIC, tube dilution, Proteus morganii A15153; format: cell-based; conditions: Morganella morganii, A15153, Proteus morganii A15153; overnight 37° C.; read-out: Minimum Inhibitory Concentration (M.I.C.)
Excerpt: as §1

Ser. marcescens A-20019 = assay: MIC, tube dilution, Serratia marcescens A20019; format: cell-based; conditions: Serratia marcescens, A20019, Serratia marcescens A20019; overnight 37° C.; read-out: Minimum Inhibitory Concentration (M.I.C.)
Excerpt: as §1

Ent. cloacae A-9659 = assay: MIC, tube dilution, Enterobacter cloacae A9659; format: cell-based; conditions: Enterobacter cloacae, A9659, Enterobacter cloacae A9659; overnight 37° C.; read-out: Minimum Inhibitory Concentration (M.I.C.)
Excerpt: as §1

Ent. cloacae A-9656 = assay: MIC, tube dilution, Enterobacter cloacae A9656; format: cell-based; conditions: overnight 37° C., read-out: Minimum Inhibitory Concentration (M.I.C.)
Excerpt: as §1

Ps. aeruginosa A-9843A = assay: MIC, tube dilution, Pseudomonas aeruginosa A9843A; format: cell-based; conditions: Pseudomonas aeruginosa, A9843A, read-out: Minimum Inhibitory Concentration (M.I.C.), Pseudomonas aeruginosa A9843A; overnight 37° C.
Excerpt: as §1

Ps. aeruginosa A-21213 = assay: MIC, tube dilution, Pseudomonas aeruginosa A21213; format: cell-based; conditions: overnight 37° C., read-out: Minimum Inhibitory Concentration (M.I.C.)
Excerpt: as §1

Proteus rettgeri A21203 = assay: MIC, tube dilution, Proteus rettgeri A21203; format: cell-based; conditions: Providencia rettgeri, A21203, Proteus rettgeri A21203; overnight 37° C.; read-out: Minimum Inhibitory Concentration (M.I.C.)
Excerpt: as §1

Proteus vulgaris A9555 = assay: MIC, tube dilution, Proteus vulgaris (mirabilis) A9555; format: cell-based; conditions: overnight 37° C., read-out: Minimum Inhibitory Concentration (M.I.C.)
Excerpt: as §1

[5] = stability in aqueous solution followed by UV; format: physicochemical; set-up: unit not given here; conditions: for ε at λmax 255 in aqueous solution (stability) / ε at λmax 307 in aqueous solution (stability) / ε at λmax 254 in aqueous solution (stability): UV
Experimental: To a solution of penem 3 (2.4 g, 6.89 mmoles) in tetrahydrofuran-ether-water mixture (1:1:1, 165 ml) was added 30% palladium on diatomaceous earth (4.8 g). The reaction mixture was hydrogenated under 45 p.s.i. at 23° C. for 2.5 h and filtered over celite pad. The filtrate and washings were combined, washed twice with ether, centrifugated and filtered several times to give a clear solution which was lyophilized; 0.622 g, 45%. The crystallization of the compound was induced by the addition of water (0.8 ml); the suspension was centrifuged and the water was removed leaving an orange solid. This solid was washed twice with water and a slightly yellow solid was obtained after drying: […], 19.8%. UV λmax^H.sbsp.2^O : 307 (ε=4318) and 257 (ε=2650). Some crude starting material (1.2 g, 50%) was recovered. The compound (50 mg) can also be purified by column chromatography [Sephadex G10, column size: 1.6×100 cm, flow rate: 10 ml/h, eluent: distilled water, fraction volume: 1.5 ml, detector: refractive index]. UV λmax^H.sbsp.2^O 307 (ε=3597) and 255 (ε=2424).
The stability of the compound in aqueous solution was checked by:
A sample of compound 4 was kept at 23° C. for 3 days and the UV was taken: UV λmax^H.sbsp.2^O : 307 (ε=3055) and 255 (ε=2008).
To a solution of ester 6 (200 mg, 0.5 mmole) in tetrahydrofuran (10 ml) was added ether (10 ml), water (10 ml) and 30% palladium on diatomaceous earth (200 mg). The reaction mixture was hydrogenated in a Parr apparatus under 35 p.s.i. at 25° C. for 2 h 30 min and filtered over a celite pad. The filtrate was washed twice with ether and the aqueous solution was lyophilized, giving a yellow powder which was purified by column chromatography [Sephadex G-10, bed dimensions: 100×1.6 cm, flow rate: 12 ml/h, eluent: distilled water, fraction volume: 1.5 ml detector: refractive index]. The right fractions were combined and lyophilized to give a white powder (10 mg, 8.8%). UV λmax^H.sbsp.2 O 301 (ε=4930), 258 (ε=3290). IR (KBr) cm^-1 :1770 (c=o of β-lactam) and 1580 [drawing 587] The stability of compound 7 in aqueous solution was followed by UV; after 6 h: 301 (4795) and 258 (3105) and after 72 h: 301 (4565) and 258 (3150). […]

Pr. vulgaris A-9716 = assay: MIC, tube dilution, Proteus vulgaris / Proteus mirabilis A9716; format: cell-based, Proteus vulgaris (name changed to Proteus mirabilis); conditions: Proteus vulgaris, A9716, Proteus vulgaris / Proteus mirabilis A9716; overnight 37° C.; read-out: Minimum Inhibitory Concentration (M.I.C.)
Excerpt: as §1

[6] = Escherichia coli, A203411, E. coli A20341-1; overnight 37° C.; read-out: Minimum Inhibitory Concentration (M.I.C.)
[7] = Enterobacter cloacae, A9656, Enterobacter cloacae A9656
[8] = sample kept at 23° C. for 3 days, UV in H2 O

| SMILES | MIC (Str. pneumoniae A-9585) | MIC (Str. pyogenes A-9604) | MIC (Staph. aureus A-9537) | MIC [1] | MIC [2] | MIC [3] | MIC (Str. faecalis A-20688) | MIC (E. coli A-15119) | MIC (K. pneumoniae A-15130) | MIC [4] | MIC (Pr. mirabilis A-9900) | MIC (Pr. morganii A-15153) | MIC (Ser. marcescens A-20019) | MIC (Ent. cloacae A-9659) | MIC (Ps. aeruginosa A-9843A) | MIC (Ps. aeruginosa A-21213; Pseudomonas aeruginosa A21213) | MIC (Proteus rettgeri A21203) | MIC (Proteus vulgaris A9555) | MIC (E. coli A-20341-1; [6]) | MIC (Ent. cloacae A-9656; [7]) | other results |
| --- | --- | --- | --- | --- | --- | --- | --- | --- | --- | --- | --- | --- | --- | --- | --- | --- | --- | --- | --- | --- | --- |
| CC1=C(C(=O)O)N2C(=O)[C@H](C(C)(C)O)[C@H]2S1 (relative stereo) [Example 32, trans 6-(2'-Hydroxy-2'-propyl)-2-methylpenem-3-carboxylic Acid] | 0.25 mg/L (≈ 1.03 µM) | 8 mg/L (≈ 32.9 µM) | 8 mg/L (≈ 32.9 µM) | 32 mg/L | 16 mg/L (≈ 65.8 µM) | 63 mg/L (≈ 259 µM) | > 125 mg/L | 63 mg/L (≈ 259 µM) | 125 mg/L (≈ 514 µM) | > 125 mg/L | 63 mg/L (≈ 259 µM) | 125 mg/L (≈ 514 µM) | 63 mg/L (≈ 259 µM) | 125 mg/L (≈ 514 µM) | 125 mg/L (≈ 514 µM) | 125 mg/L (≈ 514 µM) | 63 mg/L (≈ 259 µM) | 125 mg/L (≈ 514 µM) |  |  | MIC (E. coli A-20341-1; Escherichia coli, A203411; E. coli A20341-1; overnight 37° C.; read-out: Minimum Inhibitory Concentration (M.I.C.)): > 125 mg/L; MIC (Ent. cloacae A-9656; Enterobacter cloacae A9656): 125 mg/L (≈ 514 µM) |
| CC1=C(C(=O)O)N2C(=O)[C@@H]([C@@H](C)O)[C@H]2S1 (relative stereo) [Example 34, cis 6-(1'-Hydroxy-1'-ethyl)-2-methylpenem-3-carboxylic Acid, Sodium Salt (isomer "D")] | 0.25 mg/L | 2 mg/L | 4 mg/L | 63 mg/L | 4 mg/L | 16 mg/L | 125 mg/L | 4 mg/L | 32 mg/L | 125 mg/L | 16 mg/L | 32 mg/L | 32 mg/L | 32 mg/L | 125 mg/L | 125 mg/L | 32 mg/L | 16 mg/L | 16 mg/L | 63 mg/L |  |
| CC1=C(C(=O)O)N2C(=O)[C@@H](CO)[C@H]2S1 (relative stereo) [Example 68, trans 6-Hydroxymethyl-2-methylpenem-3-carboxylic Acid] | 4 mg/L (≈ 18.6 µM) | 16 mg/L (≈ 74.3 µM) | 16 mg/L (≈ 74.3 µM) | > 63 mg/L | 63 mg/L (≈ 293 µM) | 63 mg/L (≈ 293 µM) | 125 mg/L (≈ 581 µM) | 63 mg/L (≈ 293 µM) | 63 mg/L (≈ 293 µM) | 125 mg/L (≈ 581 µM) | 63 mg/L (≈ 293 µM) | 125 mg/L (≈ 581 µM) | 63 mg/L (≈ 293 µM) | 63 mg/L (≈ 293 µM) | 125 mg/L (≈ 581 µM) | 125 mg/L (≈ 581 µM) | 63 mg/L (≈ 293 µM) | 63 mg/L (≈ 293 µM) | 63 mg/L (≈ 293 µM) | 63 mg/L (≈ 293 µM) |  |
| NCC1=C(C(=O)O)N2C(=O)CC2S1 (stereo not drawn) [Example 16, 2-Aminomethylpenem-3-carboxylic Acid] | 1 mg/L (≈ 4.99 µM) | 4 mg/L (≈ 20 µM) | 2 mg/L (≈ 9.99 µM) | 32 mg/L | 8 mg/L (≈ 40 µM) | 63 mg/L (≈ 315 µM) | > 125 mg/L | 4 mg/L (≈ 20 µM) | 8 mg/L (≈ 40 µM) | 125 mg/L (≈ 624 µM) | 2 mg/L (≈ 9.99 µM) | 1 mg/L (≈ 4.99 µM) | 8 mg/L (≈ 40 µM) | 8 mg/L (≈ 40 µM) | 1 mg/L (≈ 4.99 µM) |  | 1 mg/L (≈ 4.99 µM) |  | 16 mg/L (≈ 79.9 µM) | 8 mg/L (≈ 40 µM) | ε at λmax 255 in aqueous solution (stability) ([5]; 6 h): 2773; ε at λmax 307 in aqueous solution (stability) ([5]; 6 h): 3545; ε at λmax 255 in aqueous solution (stability) ([5]; 21 h): 2411; ε at λmax 307 in aqueous solution (stability) ([5]; 21 h): 3467; ε at λmax 254 in aqueous solution (stability) ([5]; 28 h): 2398; ε at λmax 307 in aqueous solution (stability) ([5]; 28 h): 3337; ε at λmax 254 in aqueous solution (stability) ([5]; 46 h): 2398; ε at λmax 307 in aqueous solution (stability) ([5]; 46 h): 3259; ε at λmax 307 in aqueous solution (stability) ([5]; 70 h): 3076; ε at λmax 307 in aqueous solution (stability) ([5]; 94 h): 2842; ε at λmax 307 in aqueous solution (stability) ([5]; 170 h): 1900; ε at λmax 255 (stability of stored sample) [5, 8]: 2008; ε at λmax 307 (stability of stored sample) [5, 8]: 3055; MIC (Pr. vulgaris A-9716): 2 mg/L (≈ 9.99 µM); MIC (Ps. aeruginosa A-21213; Pseudomonas aeruginosa, A21213, Pseudomonas aeruginosa A21213): 1 mg/L (≈ 4.99 µM) |
